Read-outs that look alike come from different tables or passages of the source.

We go through two compounds from PMC6043372 (Journal of medicinal chemistry, 2018).

The assay has as its system Mtb H37Rv. Format: cell-based, Mycobacterium tuberculosis H37Rv.

`CCCCCCCCn1cc(CN2CCC3(CC2)OCCCO3)c2ccc(OC)cc21` [Compound 12]: the “spontaneous resistance mutation frequency” value is given as 10^−8 /CFU.

On to `CCCCCCCCn1cc(CN2CCCCCC2)c2c(F)cccc21` [Compound 71, 3-(azepan-1-ylmethyl)-4-fluoro-1-octyl-1H indole], for which, where the note is “Mtb H37Rv, 12 at 4× and 8× MIC90”, the “spontaneous resistance mutation frequency” value is reported as < 10^−9 /CFU.
